Results published in patent publication US20240391862A1, “(1,4,5-TRISUBSTITUTED-1H-PYRAZOL-3-YL)OXY-2-ALKOXY ALKYL ACIDS AND THEIR DERIVATIVES, THEIR SALTS AND THEIR USE AS HERBICIDAL AGENTS” (Bayer AKtiengesellschaft, priority 2021, published 2024).

Assays:
ZEAMX = test: Post-emergence herbicidal effect and crop plant compatibility, greenhouse pot test; type: in vivo, Zea mays; settings: one-leaf stage, rated visually after about 3 weeks vs untreated controls
Source text: (§1) • ALOMY: Alopecurus myosuroides SETVI: Setaria viridis • AVEFA: Avena fatua POLCO: Fallopia convolvulus • AMARE: Amaranthus retroflexus ECHCG: Echinochloa crus-galli • LOLRJ: Lolium rigidum STEME: Stellaria media • VERPE: Veronica persica MATIN: Tripleurospermum inodorum • DIGSA: Digitaria sanguinalis ABUTH: Abutylon threophrasti • TRZAS: Triticum aestivum VIOTR: Viola tricolor • BRSNW: Brassica napus ZEAMX: Zea mays • PHBPU: Ipomoea purpurea GLXMA: Glycine max • ORYSA: Oryza sativa HORMU: Hordeum murinum
(§2) Seeds of monocotyledonous and dicotyledonous weeds and crop plants are placed in sandy loam in plastic or organic planting pots, covered with soil and cultivated in a greenhouse under controlled growth conditions. 2 to 3 weeks after sowing, the trial plants are treated at the one-leaf stage. The compounds of the invention, formulated in the form of wettable powders (WP) or as emulsion concentrates (EC), are then sprayed onto the green parts of the plants as aqueous suspension or emulsion with addition of 0.5% additive at a water application rate of 600 l/ha (converted). After the test plants have been kept in the greenhouse under optimum growth conditions for about 3 weeks, the activity of the preparations is rated visually in comparison to untreated controls. For example, 100% activity=the plants have died, 0% activity=like control plants.
(§3) Tables 20a to 38c below show the effects/crop compatibilities of selected compounds of the general formula (I) on various harmful plants at an application rate corresponding to 20 to 320 g/ha, which were obtained by the trial procedure specified above.

ECHCG = test: Post-emergence herbicidal effect, greenhouse pot test; type: in vivo, Echinochloa crus-galli
Summary of the method: (§4)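 Greenhouse pot plants in sandy loam receive a one-leaf-stage spray at 20 to 320 g/ha. Activity is assessed visually around 3 weeks afterwards on a 0–100% scale, where 100% means the plants have died.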

VIOTR = test: as above; type: in vivo, Viola tricolor
Summary of the method: as §4

VERPE = test: as above; type: in vivo, Veronica persica; settings: 320 g/ha
Summary of the method: as §4

ALOMY = test: as above; type: in vivo, Alopecurus myosuroides; settings: 320 g/ha, visual rating about 3 weeks after treatment
Summary of the method: as §4

LOLRI = test: as above; type: in vivo, Lolium rigidum
Source text: as §1, §2, §3

PHBPU = test: as above; type: in vivo, Ipomoea purpurea
Summary of the method: as §4

MATIN = test: as above; type: in vivo, Tripleurospermum inodorum
Summary of the method: as §4

SETVI = test: as above; type: in vivo, Setaria viridis; settings: 320 g/ha
Summary of the method: as §4

DIGSA = test: as above; type: in vivo, Digitaria sanguinalis; settings: 320 g/ha, visual rating about 3 weeks after treatment
Summary of the method: as §4

KCHSC = test: as above; type: in vivo
Method: as §2, with “plants. Tables 20a to 38c below show the effects/crop compatibilities of selected compounds of the general formula (I) on various harmful plants at an application rate corresponding to 20 to 320 g/ha, which were obtained by the trial procedure specified above.” for “plants.”

ABUTH = test: as above; type: in vivo, Abutilon theophrasti; settings: visual rating about 3 weeks after treatment
Summary of the method: as §4

AVEFA = test: as above; type: in vivo, Avena fatua; settings: visual rating about 3 weeks after treatment
Summary of the method: as §4

POLCO = test: as above; type: in vivo, Fallopia convolvulus
Summary of the method: as §4

## COC(=O)CCOC(=O)C(OC)Oc1nn(-c2ncccc2F)c(-c2cncc(F)c2)c1C1CC1 (single isomer, unassigned) [Example I-77]
ZEAMX; 20 g/ha
  Post-emergence effect at 20 g/ha against ZEAMX in %: 0%
ZEAMX; 80 g/ha
  Post-emergence effect at 80 g/ha against ZEAMX in %: 0%
ECHCG; 80 g/ha
  Post-emergence effect against ECHCG in %: 90%
ECHCG; 320 g/ha
  Post-emergence effect against ECHCG in %: 90%
VIOTR; 80 g/ha
  Post-emergence effect against VIOTR in %: 90%
VIOTR; 320 g/ha
  Post-emergence effect against VIOTR in %: 90%
VERPE
  Post-emergence effect against VERPE in %: 90%
ALOMY
  Post-emergence effect against ALOMY: 90%
LOLRI; 80 g/ha
  Post-emergence effect against LOLRI in %: 90%
LOLRI; 320 g/ha
  Post-emergence effect against LOLRI in %: 90%
PHBPU; 80 g/ha
  Post-emergence effect against PHBPU in %: 90%
PHBPU; 320 g/ha
  Post-emergence effect against PHBPU in %: 90%
MATIN; 80 g/ha
  Post-emergence effect against MATIN in %: 80%
MATIN; 320 g/ha
  Post-emergence effect against MATIN in %: 80%
SETVI
  Post-emergence effect against SETVI in %: 90%
DIGSA
  Post-emergence effect against DIGSA: 90%
KCHSC; 20 g/ha
  Post-emergence effect against KCHSC in %: 80%
KCHSC; 80 g/ha
  Post-emergence effect against KCHSC in %: 90%
KCHSC; 320 g/ha
  Post-emergence effect against KCHSC in %: 90%
ABUTH; 80 g/ha
  Post-emergence effect against ABUTH: 80%
ABUTH; 320 g/ha
  Post-emergence effect against ABUTH: 80%
AVEFA; 80 g/ha
  Post-emergence effect against AVEFA: 90%
AVEFA; 320 g/ha
  Post-emergence effect against AVEFA: 90%
POLCO; 80 g/ha
  Post-emergence effect against POLCO in %: 90%
POLCO; 320 g/ha
  Post-emergence effect against POLCO in %: 90%

## CCOC(=O)C(OC)Oc1nn(-c2ncccc2F)c(-c2ccc(F)nc2)c1C1CC1 (stereo not drawn) [Example I-58]
ZEAMX; Zea mays, 504 h, 20 g/ha, read-out: Post-emergence effect at 20 g/ha against ZEAMX in %
  plant injury at 20 g/ha: 0%
ZEAMX; Zea mays, 504 h, 80 g/ha, read-out: Post-emergence effect at 80 g/ha against ZEAMX in %
  plant injury at 80 g/ha: 10%
ECHCG; Echinochloa crus-galli, 504 h, 80 g/ha, read-out: Post-emergence effect against ECHCG in %
  pest or weed control at 80 g/ha: 90%
ECHCG; Echinochloa crus-galli, 504 h, 320 g/ha, read-out: Post-emergence effect against ECHCG in %
  pest or weed control at 320 g/ha: 90%
VIOTR; Viola tricolor, 504 h, 80 g/ha, read-out: Post-emergence effect against VIOTR in %
  pest or weed control at 80 g/ha: 80%
VIOTR; Viola tricolor, 504 h, 320 g/ha, read-out: Post-emergence effect against VIOTR in %
  pest or weed control at 320 g/ha: 80%
VERPE; Veronica persica, 504 h, read-out: Post-emergence effect against VERPE in %
  pest or weed control at 320 g/ha: 80%
ALOMY; Alopecurus myosuroides, 504 h, read-out: Post-emergence effect against ALOMY
  pest or weed control at 320 g/ha: 90%
LOLRI; Lolium rigidum, 504 h, 80 g/ha, read-out: Post-emergence effect against LOLRI in %
  pest or weed control at 80 g/ha: 90%
LOLRI; Lolium rigidum, 504 h, 320 g/ha, read-out: Post-emergence effect against LOLRI in %
  pest or weed control at 320 g/ha: 90%
PHBPU; Ipomoea purpurea, 504 h, 80 g/ha, read-out: Post-emergence effect against PHBPU in %
  pest or weed control at 80 g/ha: 80%
PHBPU; Ipomoea purpurea, 504 h, 320 g/ha, read-out: Post-emergence effect against PHBPU in %
  pest or weed control at 320 g/ha: 90%
SETVI; Setaria viridis, 504 h, read-out: Post-emergence effect against SETVI in %
  pest or weed control at 320 g/ha: 90%
DIGSA; Digitaria sanguinalis, 504 h, read-out: Post-emergence effect against DIGSA
  pest or weed control at 320 g/ha: 80%
KCHSC; 504 h, 80 g/ha, read-out: Post-emergence effect against KCHSC in %
  pest or weed control at 80 g/ha: 90%
KCHSC; 504 h, 320 g/ha, read-out: Post-emergence effect against KCHSC in %
  pest or weed control at 320 g/ha: 90%
ABUTH; Abutilon theophrasti, 504 h, 80 g/ha, read-out: Post-emergence effect against ABUTH
  pest or weed control at 80 g/ha: 80%
ABUTH; Abutilon theophrasti, 504 h, 320 g/ha, read-out: Post-emergence effect against ABUTH
  pest or weed control at 320 g/ha: 80%
AVEFA; Avena fatua, 504 h, 20 g/ha, read-out: Post-emergence effect against AVEFA
  pest or weed control at 20 g/ha: 80%
AVEFA; Avena fatua, 504 h, 80 g/ha, read-out: Post-emergence effect against AVEFA
  pest or weed control at 80 g/ha: 80%
AVEFA; Avena fatua, 504 h, 320 g/ha, read-out: Post-emergence effect against AVEFA
  pest or weed control at 320 g/ha: 90%
POLCO; Fallopia convolvulus, 504 h, 80 g/ha, read-out: Post-emergence effect against POLCO in %
  pest or weed control at 80 g/ha: 80%
POLCO; Fallopia convolvulus, 504 h, 320 g/ha, read-out: Post-emergence effect against POLCO in %
  pest or weed control at 320 g/ha: 80%
